# Experimental data: patent publication US20260092071A1, “COMPOUNDS AND COMPOSITIONS AS SMARCA2/4 DEGRADERS AND USES THEREOF” (REGENTS OF THE UNIVERSITY OF MICHIGAN, priority 2022, published 2026)
# Legend:
# SMARCA2 = SMARCA2 (Homo sapiens, UniProt P51531); assay: HiBit assay in engineered HT1080 CRISPR knock-in cell, 6 hrs (B series), SMARCA2; type: cell-based; conditions: 6 hrs incubation; for DC50: HT1080 CRISPR knock-in cells, read-out: SMARC A2 HT1080 HiBit DC50; for Dmax: HT-1080, HT1080 CRISPR knock-in cells, read-out: SMARC A2 HT1080 HiBit Dmax (%)
# Sequence of SMARCA2 (P51531 whole entry): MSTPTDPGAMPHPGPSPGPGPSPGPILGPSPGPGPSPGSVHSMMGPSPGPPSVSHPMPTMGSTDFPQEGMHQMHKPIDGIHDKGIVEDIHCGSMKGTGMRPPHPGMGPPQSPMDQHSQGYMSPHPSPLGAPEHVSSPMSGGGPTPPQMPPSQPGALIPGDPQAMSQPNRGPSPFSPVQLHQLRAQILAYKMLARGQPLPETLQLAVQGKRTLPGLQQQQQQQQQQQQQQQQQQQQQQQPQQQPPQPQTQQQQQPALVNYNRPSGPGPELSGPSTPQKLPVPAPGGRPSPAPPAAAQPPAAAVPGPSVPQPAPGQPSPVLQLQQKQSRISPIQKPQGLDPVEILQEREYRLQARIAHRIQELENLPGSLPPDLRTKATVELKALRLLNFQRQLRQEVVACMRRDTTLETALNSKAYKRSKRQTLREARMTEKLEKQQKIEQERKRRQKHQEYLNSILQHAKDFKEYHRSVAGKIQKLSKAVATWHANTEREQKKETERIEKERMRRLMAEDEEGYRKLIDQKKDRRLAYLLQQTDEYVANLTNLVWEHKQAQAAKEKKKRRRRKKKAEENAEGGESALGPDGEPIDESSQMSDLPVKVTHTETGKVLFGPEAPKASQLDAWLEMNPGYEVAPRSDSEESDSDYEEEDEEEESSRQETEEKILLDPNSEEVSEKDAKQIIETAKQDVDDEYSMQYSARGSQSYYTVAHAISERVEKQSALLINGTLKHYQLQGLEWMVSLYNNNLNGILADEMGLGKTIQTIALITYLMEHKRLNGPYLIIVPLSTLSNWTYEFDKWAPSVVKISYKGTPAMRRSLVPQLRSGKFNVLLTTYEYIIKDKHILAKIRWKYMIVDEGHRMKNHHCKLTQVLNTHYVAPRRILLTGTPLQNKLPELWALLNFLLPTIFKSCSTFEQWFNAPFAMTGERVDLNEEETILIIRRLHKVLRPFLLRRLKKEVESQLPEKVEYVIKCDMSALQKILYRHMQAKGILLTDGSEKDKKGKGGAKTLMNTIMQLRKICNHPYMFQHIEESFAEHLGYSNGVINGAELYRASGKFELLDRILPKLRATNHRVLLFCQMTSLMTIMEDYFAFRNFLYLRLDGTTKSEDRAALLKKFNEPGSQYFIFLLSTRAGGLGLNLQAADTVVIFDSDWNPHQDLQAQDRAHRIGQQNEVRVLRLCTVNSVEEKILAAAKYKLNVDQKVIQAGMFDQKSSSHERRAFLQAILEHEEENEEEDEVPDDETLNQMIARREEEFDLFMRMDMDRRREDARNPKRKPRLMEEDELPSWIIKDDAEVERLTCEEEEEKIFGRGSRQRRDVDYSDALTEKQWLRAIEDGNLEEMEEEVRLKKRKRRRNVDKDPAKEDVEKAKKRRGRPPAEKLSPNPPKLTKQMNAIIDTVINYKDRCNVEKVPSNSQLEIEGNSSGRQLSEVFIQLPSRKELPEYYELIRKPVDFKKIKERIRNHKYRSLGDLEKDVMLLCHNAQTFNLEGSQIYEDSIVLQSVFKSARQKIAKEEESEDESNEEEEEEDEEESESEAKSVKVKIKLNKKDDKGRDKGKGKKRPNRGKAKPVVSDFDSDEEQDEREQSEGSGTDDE
# Experimental: (§1) The HiBit assay was performed using engineered HT1080 CRISPR knock-in cell utilizing the Nano-Glo HiBiT Lytic Detection System from Promega, Cat #N3040. Compounds were transferred, 25 nL DMSO or test compounds (final DMSO @ 0.1%) to intermediate plates (Corning3570) using ECHO550. Cells were seeded onto compounds at 2000 cells/25 μL/well and incubated for 6 hrs in a tissue culture incubator at 37° C. and 5% CO2. The LgBiT Protein was diluted at 1:100 and the Nano-Glo® HiBIT Lytic Substrate 1:50 into an appropriate volume of room temperature using the Nano-Glo® HiBiT Lytic Buffer. At the end of compound incubation time, 15 ul of the detection reagent was added to each well (without LgBiT for negative control wells) using the Thermo Scientific multidrop combi. The plate was shaken for 10 mins at RT using Combi. After briefly centrifugation (2000 rpm 1 mins), plate was read on Envision (Ultrasensitive luminescence model).
# SMARCA4 = SMARCA4 (Homo sapiens, UniProt P51532); assay: HiBit assay in engineered HT1080 CRISPR knock-in cell, 6 hrs (B series), SMARCA4; type: cell-based; conditions: 6 hrs incubation; for DC50: HT1080 CRISPR knock-in cells, read-out: SMARC A4 HT1080 HiBit DC50; for Dmax: HT-1080, HT1080 CRISPR knock-in cells, read-out: SMARC A4 HT1080 HiBit Dmax(%)
# Sequence of SMARCA4 (P51532 whole entry): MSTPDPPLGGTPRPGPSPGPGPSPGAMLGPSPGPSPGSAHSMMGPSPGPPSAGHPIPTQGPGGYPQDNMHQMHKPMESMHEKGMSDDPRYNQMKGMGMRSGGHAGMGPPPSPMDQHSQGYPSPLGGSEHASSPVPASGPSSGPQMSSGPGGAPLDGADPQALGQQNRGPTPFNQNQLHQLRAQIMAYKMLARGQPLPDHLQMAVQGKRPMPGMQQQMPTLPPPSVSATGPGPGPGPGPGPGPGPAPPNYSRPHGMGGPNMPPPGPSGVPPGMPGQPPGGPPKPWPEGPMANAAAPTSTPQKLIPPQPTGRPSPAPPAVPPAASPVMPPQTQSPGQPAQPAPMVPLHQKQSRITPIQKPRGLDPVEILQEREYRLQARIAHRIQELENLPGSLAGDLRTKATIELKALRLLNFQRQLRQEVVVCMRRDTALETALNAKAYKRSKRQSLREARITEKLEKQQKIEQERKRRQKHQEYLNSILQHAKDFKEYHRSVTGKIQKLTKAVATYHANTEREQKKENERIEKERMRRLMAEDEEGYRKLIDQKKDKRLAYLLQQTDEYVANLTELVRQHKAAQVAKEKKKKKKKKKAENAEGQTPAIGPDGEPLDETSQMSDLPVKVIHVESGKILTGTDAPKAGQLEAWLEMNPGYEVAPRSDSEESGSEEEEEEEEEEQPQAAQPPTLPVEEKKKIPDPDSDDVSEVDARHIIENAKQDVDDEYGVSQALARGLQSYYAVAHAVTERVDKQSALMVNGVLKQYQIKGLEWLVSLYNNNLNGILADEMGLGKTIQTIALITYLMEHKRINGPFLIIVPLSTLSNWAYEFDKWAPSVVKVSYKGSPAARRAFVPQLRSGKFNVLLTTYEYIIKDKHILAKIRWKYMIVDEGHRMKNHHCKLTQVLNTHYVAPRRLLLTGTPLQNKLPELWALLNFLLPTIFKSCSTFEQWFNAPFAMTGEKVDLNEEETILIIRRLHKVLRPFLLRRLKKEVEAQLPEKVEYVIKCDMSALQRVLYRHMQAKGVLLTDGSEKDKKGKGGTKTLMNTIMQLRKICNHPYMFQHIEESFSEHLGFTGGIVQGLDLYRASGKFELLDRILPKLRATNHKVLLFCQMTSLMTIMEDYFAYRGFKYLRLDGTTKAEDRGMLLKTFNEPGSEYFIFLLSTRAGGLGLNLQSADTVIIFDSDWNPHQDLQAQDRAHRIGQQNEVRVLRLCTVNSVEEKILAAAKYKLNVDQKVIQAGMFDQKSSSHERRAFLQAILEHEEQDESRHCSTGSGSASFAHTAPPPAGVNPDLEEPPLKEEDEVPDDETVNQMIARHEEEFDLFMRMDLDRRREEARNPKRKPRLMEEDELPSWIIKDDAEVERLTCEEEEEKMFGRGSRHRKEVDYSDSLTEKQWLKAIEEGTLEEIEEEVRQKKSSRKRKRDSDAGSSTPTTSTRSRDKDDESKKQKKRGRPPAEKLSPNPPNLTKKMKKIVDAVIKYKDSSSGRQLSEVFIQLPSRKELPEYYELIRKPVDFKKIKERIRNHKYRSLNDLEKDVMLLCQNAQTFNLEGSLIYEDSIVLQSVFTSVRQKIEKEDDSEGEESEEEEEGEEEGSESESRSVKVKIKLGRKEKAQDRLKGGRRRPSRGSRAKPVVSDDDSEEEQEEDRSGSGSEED
# Experimental: as §1
Structure (SMILES),DC50 (SMARCA2),Dmax (SMARCA2),DC50 (SMARCA4),Dmax (SMARCA4)
"Cc1ncsc1-c1ccc([C@H](C)NC(=O)C2C[C@@H](O)CN2C(=O)[C@@H](c2cc(OCCCCN3CCC(c4cccc5c4C(C)(C)c4nc(=O)c6c(Cl)cccc6n4-5)CC3)no2)C(C)C)cc1 (stereo in doubt) [Compound B98, (2S,4R)-1-(2-(3-(4-(4-(4-chloro-7,7-dimethyl-5-oxo-5,7-dihydroindolo[1,2-a]quinazolin-8-yl)piperidin-1-yl)butoxy)isoxazol-5-yl)-3-methylbutanoyl)-4-hydroxy-N-((S)-1-(4-(4-methylthiazol-5-yl)phenyl)ethyl)pyrrolidine-2-carboxamide]",< 100 nM,70 to 90%,100 to 500 nM,< 50%
"Cc1ncsc1-c1ccc(C(CN2CCOCC2)NC(=O)[C@@H]2C[C@@H](O)CN2C(=O)[C@H](c2cc(N3CCC(CN4CCN(c5ccc6c(c5)-n5c(nc(=O)c7c(Cl)cccc75)C65CCCCC5)CC4)CC3)no2)C(C)C)cc1 (stereo in doubt) [Compound B160, (2S,4R)-1-((S)-2-(3-(4-((4-(4′-chloro-5′-oxo-5′H-spiro[cyclohexane-1,7′-indolo[1,2-a]quinazolin]-10′-yl)piperazin-1-yl)methyl)piperidin-1-yl)isoxazol-5-yl)-3-methylbutanoyl)-4-hydroxy-N-((S)-1-(4-(4-methylthiazol-5-yl)phenyl)-2-morpholinoethyl)pyrrolidine-2-carboxamide]",< 100 nM,> 90%,< 100 nM,50 to 69%
"Cc1ncsc1-c1ccc([C@H](C)NC(=O)[C@@H]2C[C@@H](O)CN2C(=O)[C@@H](NC(=O)[C@H]2CC[C@H](CN3CCC(c4ccc5c(c4)C(C)(C)c4nc(=O)c6c(Cl)cccc6n4-5)CC3)CC2)C(C)(C)C)cc1 [Compound B1, (2S,4R)-1-((S)-2-((1r,4S)-4-((4-(4-chloro-7,7-dimethyl-5-oxo-5,7-dihydroindolo[1,2-a]quinazolin-9-yl)piperidin-1-yl)methyl)cyclohexane-1-carboxamido)-3,3-dimethylbutanoyl)-4-hydroxy-N—((S)-1-(4-(4-methylthiazol-5-yl)phenyl)ethyl)pyrrolidine-2-carboxamide]",< 100 nM,> 90%,< 100 nM,50 to 69%
"Cc1ncsc1-c1ccc([C@H](CCCCCN2CCC(c3ccc4c(c3)C(C)(C)c3nc(=O)c5c(Br)cccc5n3-4)CC2)NC(=O)[C@@H]2C[C@@H](O)CN2C(=O)[C@@H](NC(=O)C2(F)CC2)C(C)(C)C)cc1 [Compound B2, (2S,4R)—N—((S)-6-(4-(4-bromo-7,7-dimethyl-5-oxo-5,7-dihydroindolo[1,2-a]quinazolin-9-yl)piperidin-1-yl)-1-(4-(4-methylthiazol-5-yl)phenyl)hexyl)-1-((S)-2-(1-fluorocyclopropane-1-carboxamido)-3,3-dimethylbutanoyl)-4-hydroxypyrrolidine-2-carboxamide]",< 100 nM,> 90%,< 100 nM,> 90%
"Cc1ncsc1-c1ccc([C@H](CCCCCN2CCC(c3ccc4c(c3)C(C)(C)c3nc(=O)c5c(Br)cccc5n3-4)CC2)NC(=O)[C@@H]2C[C@@H](O)CN2C(=O)[C@@H](NC(=O)C2(C#N)CC2)C(C)(C)C)cc1 [Compound B3, (2S,4R)—N—((S)-6-(4-(4-bromo-7,7-dimethyl-5-oxo-5,7-dihydroindolo[1,2-a]quinazolin-9-yl)piperidin-1-yl)-1-(4-(4-methylthiazol-5-yl)phenyl)hexyl)-1-((S)-2-(1-cyanocyclopropane-1-carboxamido)-3,3-dimethylbutanoyl)-4-hydroxypyrrolidine-2-carboxamide]",< 100 nM,> 90%,< 100 nM,> 90%
"Cc1ncsc1-c1ccc([C@H](C)NC(=O)[C@@H]2C[C@@H](O)CN2C(=O)[C@@H](c2cc(OCCN3CCC(c4ccc5c(c4)C(C)(C)c4nc(=O)c6c(Cl)cccc6n4-5)CC3)no2)C(C)C)cc1 [Compound B4, (2S,4R)-1-((R)-2-(3-(2-(4-(4-chloro-7,7-dimethyl-5-oxo-5,7-dihydroindolo[1,2-a]quinazolin-9-yl)piperidin-1-yl)ethoxy)isoxazol-5-yl)-3-methylbutanoyl)-4-hydroxy-N—((S)-1-(4-(4-methylthiazol-5-yl)phenyl)ethyl)pyrrolidine-2-carboxamide]",< 100 nM,> 90%,< 100 nM,70 to 90%
"Cc1ncsc1-c1ccc([C@H](C)NC(=O)[C@@H]2C[C@@H](O)CN2C(=O)[C@@H](NC(=O)CN2CCC(c3ccc4c(c3)C(C)(C)c3nc(=O)c5c(Br)cccc5n3-4)CC2)C(C)(C)C)cc1 [Compound B5, (2S,4R)-1-((S)-2-(2-(4-(4-bromo-7,7-dimethyl-5-oxo-5,7-dihydroindolo[1,2-a]quinazolin-9-yl)piperidin-1-yl)acetamido)-3,3-dimethylbutanoyl)-4-hydroxy-N—((S)-1-(4-(4-methylthiazol-5-yl)phenyl)ethyl)pyrrolidine-2-carboxamide]",< 100 nM,> 90%,< 100 nM,> 90%
"Cc1ncsc1-c1ccc([C@H](C)NC(=O)[C@@H]2C[C@@H](O)CN2C(=O)[C@@H](NC(=O)CN2CCC(c3ccc4c(c3)C(C)(C)c3nc(=O)c5c(Cl)cccc5n3-4)CC2)C(C)(C)C)cc1 [Compound B6, (2S,4R)-1-((S)-2-(2-(4-(4-chloro-7,7-dimethyl-5-oxo-5,7-dihydroindolo[1,2-a]quinazolin-9-yl)piperidin-1-yl)acetamido)-3,3-dimethylbutanoyl)-4-hydroxy-N—((S)-1-(4-(4-methylthiazol-5-yl)phenyl)ethyl)pyrrolidine-2-carboxamide]",< 100 nM,> 90%,< 100 nM,> 90%
"Cc1ncsc1-c1ccc([C@H](CCCCCN2CCC(c3ccc4c(c3)C(C)(C)c3nc(=O)c5c(Cl)cccc5n3-4)CC2)NC(=O)[C@@H]2C[C@@H](O)CN2C(=O)[C@@H](NC(=O)C2(F)CC2)C(C)(C)C)cc1 [Compound B7, (2S,4R)—N—((S)-6-(4-(4-chloro-7,7-dimethyl-5-oxo-5,7-dihydroindolo[1,2-a]quinazolin-9-yl)piperidin-1-yl)-1-(4-(4-methylthiazol-5-yl)phenyl)hexyl)-1-((S)-2-(1-fluorocyclopropane-1-carboxamido)-3,3-dimethylbutanoyl)-4-hydroxypyrrolidine-2-carboxamide]",< 100 nM,> 90%,< 100 nM,> 90%
"Cc1ncsc1-c1ccc([C@H](C)NC(=O)[C@@H]2C[C@@H](O)CN2C(=O)C(c2cc(CN3CCC(c4ccc5c(c4)C(C)(C)c4nc(=O)c6c(Cl)cccc6n4-5)CC3)no2)C(C)C)cc1 (stereo partly drawn) [Compound B8, (2S,4R)-1-(2-(3-((4-(4-chloro-7,7-dimethyl-5-oxo-5,7-dihydroindolo[1,2-a]quinazolin-9-yl)piperidin-1-yl)methyl)isoxazol-5-yl)-3-methylbutanoyl)-4-hydroxy-N—((S)-1-(4-(4-methylthiazol-5-yl)phenyl)ethyl)pyrrolidine-2-carboxamide]",< 100 nM,> 90%,< 100 nM,70 to 90%
